Test results published in ChEMBL document CHEMBL1201862, “PubChem BioAssay data set” (2004).
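Each compound was tested at five concentrations against cells in 96-well plates for 48 hours. At the GI50, growth is halved.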 Active and inactive are the calls of the source. Rule as the data show it: active = GI50 up to about 1.1 µM and inactive = higher.

Legend:
Assay in all cases: NCI anticancer screen, dose series, 48 h
NCI-H460 = tested on: NCI-H460
DMS-273 = tested on: DMS-273
HCT-116 = tested on: HCT-116
DLD-1 = tested on: DLD-1
NCI-H522 = tested on: NCI-H522
COLO 205 = tested on: COLO 205
Malme-3M = tested on: Malme-3M
SK-MEL-5 = tested on: SK-MEL-5
OVCAR-4 = tested on: OVCAR-4
OVCAR-8 = tested on: OVCAR-8
HL-60 = tested on: HL-60
HT-29 = tested on: HT-29
ACHN = tested on: ACHN
SNB-75 = tested on: SNB-75
KM-20L2 = tested on: KM-20L2
IGROV-1 = tested on: IGROV-1
U-251 = tested on: U-251
MOLT-4 = tested on: MOLT-4
RPMI-8226 = tested on: RPMI-8226
DMS-114 = tested on: DMS-114
SR = tested on: SR
M19-MEL = tested on: M19-MEL
HOP-62 = tested on: HOP-62
UACC-257 = tested on: UACC-257
786-0 = tested on: 786-0
A549 = tested on: A549
NCI-H23 = tested on: NCI-H23
CCRF-CEM = tested on: CCRF-CEM
K562 = tested on: K562
EKVX = tested on: EKVX
SW-620 = tested on: SW-620
SK-MEL-28 = tested on: SK-MEL-28
HCT-15 = tested on: HCT-15
XF498 = tested on: XF498
SNB-78 = tested on: SNB-78
OVCAR-3 = tested on: OVCAR-3
SK-MEL-2 = tested on: SK-MEL-2
HCC 2998 = tested on: HCC 2998
SN12C = tested on: SN12C
KM12 = tested on: KM12
SF-268 = tested on: SF-268
NCI-H226 = tested on: NCI-H226
LOX IMVI = tested on: LOX IMVI
SF-295 = tested on: SF-295
M14 = tested on: M14
A498 = tested on: A498
LXFL 529 = tested on: LXFL 529
TK-10 = tested on: TK-10
OVCAR-5 = tested on: OVCAR-5
SK-OV-3 = tested on: SK-OV-3
RXF 393 = tested on: RXF 393
UACC-62 = tested on: UACC-62
UO-31 = tested on: UO-31
SNB-19 = tested on: SNB-19
SF-539 = tested on: SF-539
CAKI-1 = tested on: CAKI-1

SMILES: O=C1CCCCC1CN1CCCC1 (centres undefined)
- GI50 (NCI-H460): > 100 µM (inactive)
- GI50 (DMS-273): > 100 µM (inactive)
- GI50 (HCT-116): > 100 µM (inactive)
- GI50 (DLD-1): > 100 µM (inactive)
- GI50 (NCI-H522): 0.178 µM (active)
- GI50 (COLO 205): > 100 µM (inactive)
- GI50 (Malme-3M): > 10 µM (inactive)
- GI50 (SK-MEL-5): > 100 µM (inactive)
- GI50 (OVCAR-4): > 100 µM (inactive)
- GI50 (OVCAR-8): > 100 µM (inactive)
- GI50 (HL-60): > 10 µM (inactive)
- GI50 (HT-29): > 100 µM (inactive)
- GI50 (ACHN): > 100 µM (inactive)
- GI50 (SNB-75): > 100 µM (inactive)
- GI50 (KM-20L2): > 100 µM (inactive)
- GI50 (IGROV-1): > 100 µM (inactive)
- GI50 (U-251): > 100 µM (inactive)
- GI50 (MOLT-4): > 100 µM (inactive)
- GI50 (RPMI-8226): 84.3 µM (inactive)
- GI50 (DMS-114): > 100 µM (inactive)
- GI50 (SR): 38.7 µM (inactive)
- GI50 (M19-MEL): > 100 µM (inactive)
- GI50 (HOP-62): > 100 µM (inactive)
- GI50 (UACC-257): > 100 µM (inactive)
- GI50 (786-0): > 100 µM (inactive)
- GI50 (A549): > 100 µM (inactive)
- GI50 (NCI-H23): > 100 µM (inactive)
- GI50 (CCRF-CEM): 65.6 µM (inactive)
- GI50 (K562): > 100 µM (inactive)
- GI50 (EKVX): > 100 µM (inactive)
- GI50 (SW-620): > 100 µM (inactive)
- GI50 (SK-MEL-28): > 100 µM (inactive)
- GI50 (HCT-15): > 100 µM
- GI50 (XF498): > 100 µM (inactive)
- GI50 (SNB-78): > 100 µM (inactive)
- GI50 (OVCAR-3): > 100 µM (inactive)
- GI50 (SK-MEL-2): > 100 µM (inactive)
- GI50 (HCC 2998): > 100 µM (inactive)
- GI50 (SN12C): > 100 µM (inactive)
- GI50 (KM12): > 100 µM (inactive)
- GI50 (SF-268): > 100 µM (inactive)
- GI50 (NCI-H226): > 100 µM (inactive)
- GI50 (LOX IMVI): > 100 µM (inactive)
- GI50 (SF-295): > 100 µM (inactive)
- GI50 (M14): > 100 µM (inactive)
- GI50 (A498): > 100 µM (inactive)
- GI50 (LXFL 529): > 100 µM (inactive)
- GI50 (TK-10): > 100 µM (inactive)
- GI50 (OVCAR-5): > 100 µM (inactive)
- GI50 (SK-OV-3): > 100 µM (inactive)

SMILES: CCOC(=O)C1CCCCN1C(=O)OCc1ccccc1 (centres undefined)
- GI50 (RXF 393): > 100 µM (inactive)
- GI50 (NCI-H460): > 100 µM (inactive)
- GI50 (DMS-273): > 100 µM (inactive)
- GI50 (HCT-116): > 100 µM (inactive)
- GI50 (DLD-1): > 100 µM (inactive)
- GI50 (NCI-H522): > 100 µM (inactive)
- GI50 (UACC-62): > 100 µM (inactive)
- GI50 (SK-MEL-5): > 100 µM (inactive)
- GI50 (UO-31): 99.8 µM (inactive)
- GI50 (SNB-19): > 100 µM (inactive)
- GI50 (OVCAR-4): > 100 µM (inactive)
- GI50 (OVCAR-8): > 100 µM (inactive)
- GI50 (HL-60): 41 µM (inactive)
- GI50 (HT-29): > 100 µM (inactive)
- GI50 (ACHN): > 100 µM (inactive)
- GI50 (SNB-75): > 100 µM (inactive)
- GI50 (U-251): 86.1 µM (inactive)
- GI50 (MOLT-4): > 100 µM (inactive)
- GI50 (DMS-114): 97.7 µM (inactive)
- GI50 (SR): > 100 µM (inactive)
- GI50 (M19-MEL): > 100 µM (inactive)
- GI50 (HOP-62): > 100 µM (inactive)
- GI50 (UACC-257): > 100 µM (inactive)
- GI50 (786-0): > 100 µM (inactive)
- GI50 (A549): > 100 µM (inactive)
- GI50 (NCI-H23): 78.3 µM (inactive)
- GI50 (CCRF-CEM): > 100 µM (inactive)
- GI50 (K562): > 100 µM (inactive)
- GI50 (EKVX): > 100 µM (inactive)
- GI50 (SW-620): > 100 µM (inactive)
- GI50 (SK-MEL-28): > 100 µM (inactive)
- GI50 (SF-539): > 100 µM (inactive)
- GI50 (HCT-15): > 100 µM
- GI50 (XF498): 14.2 µM (inactive)
- GI50 (SNB-78): > 100 µM (inactive)
- GI50 (OVCAR-3): > 100 µM (inactive)
- GI50 (SK-MEL-2): > 100 µM (inactive)
- GI50 (SN12C): > 100 µM (inactive)
- GI50 (KM12): > 100 µM (inactive)
- GI50 (SF-268): > 100 µM (inactive)
- GI50 (NCI-H226): 27.3 µM (inactive)
- GI50 (CAKI-1): > 100 µM (inactive)
- GI50 (SF-295): > 100 µM (inactive)
- GI50 (M14): > 100 µM (inactive)
- GI50 (A498): > 100 µM (inactive)
- GI50 (LXFL 529): > 100 µM (inactive)
- GI50 (TK-10): > 100 µM (inactive)
- GI50 (OVCAR-5): > 100 µM (inactive)
- GI50 (SK-OV-3): > 100 µM (inactive)
